From EP0231622B1, “Inhibition of the 5-lipoxygenase pathway” (priority 1985, dated 1987) come the findings set out here.

In experiment [1] the target is T1, 5-Lipoxygenase (Rattus norvegicus, UniProt P12527).
T1 construct: The activities of these enzymes in extracts of RBL-1 cells were assayed; host or cells: RBL-1 cells, disrupted by nitrogen cavitation; 10,000 x g or 100,000 x g supernatant
T1 sequence (P12527 1-673): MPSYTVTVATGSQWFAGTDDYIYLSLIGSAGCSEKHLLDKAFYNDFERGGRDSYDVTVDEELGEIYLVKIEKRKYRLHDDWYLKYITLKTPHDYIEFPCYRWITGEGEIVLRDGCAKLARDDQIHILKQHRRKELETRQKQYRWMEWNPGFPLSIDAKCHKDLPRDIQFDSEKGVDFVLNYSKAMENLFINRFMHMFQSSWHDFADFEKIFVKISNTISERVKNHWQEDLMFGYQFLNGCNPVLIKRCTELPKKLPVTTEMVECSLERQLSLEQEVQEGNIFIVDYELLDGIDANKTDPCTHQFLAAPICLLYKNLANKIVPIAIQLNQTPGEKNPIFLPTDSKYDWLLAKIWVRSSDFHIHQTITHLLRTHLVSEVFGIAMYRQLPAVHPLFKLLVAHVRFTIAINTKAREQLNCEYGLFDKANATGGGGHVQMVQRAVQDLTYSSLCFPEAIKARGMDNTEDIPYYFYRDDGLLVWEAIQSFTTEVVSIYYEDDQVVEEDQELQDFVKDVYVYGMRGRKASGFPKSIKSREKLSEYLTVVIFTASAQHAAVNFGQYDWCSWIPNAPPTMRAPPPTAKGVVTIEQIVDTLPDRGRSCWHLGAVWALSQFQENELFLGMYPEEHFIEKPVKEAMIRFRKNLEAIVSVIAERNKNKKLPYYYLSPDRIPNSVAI
In words: 5-HETE production by RBL-1 high speed supernatant. Format: biochemical. Conditions: for IC50: Table 8A, RBL-1 high speed supernatant. As to the method:
(§1) For in vitro experiments, compounds were dissolved at appropriate concentrations in ethanol or DMSO (dimethylsulfoxide) (final concentration <1.0%) and then diluted to final concentrations using the buffers indicated in the text.
(§2) The activities of these enzymes in extracts of RBL-1 cells were assayed using the method of Jakschik and Lee, Nature, 287, 51-52 (1980). RBL-1 cells were obtained from the American Type Culture Collection (#CRL 1378) and were grown at 37°C (5% CO₂ in air) in spinner culture in MEM supplemented with 10% heat inactivated fetal calf serum. Harvested cells were washed with 50 mM sodium phosphate buffer, pH 7.0, containing 1 mM EDTA and 0.1% gelatin, resuspended in fresh buffer (5 x 10⁷ cells/ml) and disrupted by nitrogen cavitation using the Parr bomb at 750 psi for 10 min. The broken cell extract was then centrifuged at 10,000 x g for 20 minutes and the supernatant centrifuged at 100,000 x g for 60 minutes. Aliquots (0.25 mls) of the supernatant were preincubated with or without drugs for 10 min, after which 10 ul CaCl₂ (50 mM) was added and the reaction was initiated with 2.5 ul of 2.5 mM arachidonic acid-1-¹⁴C (final concentration was […]; specific activity 20,000 dpm/nmole). After incubation for 3 min at 37°C, the reaction was terminated by addition of 2 volumes (0.5 ml) ice cold acetone and the sample was allowed to deproteinize on ice for 10 min prior to centrifugation at 1,000 x g for 10 min. The deproteinized supernatant was adjusted to pH 3.5 with 2N formic acid and extracted with 2 volumes of ice cold ethyl acetate. The extracted samples were dried under argon, redissolved in ethyl acetate and applied to Whatman LK5D thin layer chromatography (TLC) plates which were developed using the A-9 solvent system [organic phase of ethyl acetate: 2,2,5-trimethylpentane:acetic acid: water (110:50:20:10)] described by Hamberg and Samuelsson, J. Biol. Chem., 241, 257-263 (1966). Arachidonic acid, 5-HETE, di-HETE and PGD₂ were quantified with a Berthold LB 2832 autoscanner.
(§3) The 5-lipoxygenase and LTA₄ synthetase activities were further studied under the following conditions. An additional centrifugation of the RBL-1 supernatant was run at 100,000 x g for 60 min, to remove the particulate cyclooxygenase activity. Sample incubation was done under conditions similar to those described above, i.e., 2 mM CaCl₂ and 25 uM arachidonic acid-1-¹⁴C, however, with an incubation time of 5 min at […]. Under these conditions, only the 5-lipoxygenase pathway metabolites were detectable. The 5-HETE and di-HETEs were formed at a linear rate, and […] amounts of the arachidonic acid-1-¹⁴C substrate were utilized.

In experiment [2] the target is T2, 5-LO (Rattus norvegicus, UniProt P12527).
T2 construct: The activities of these enzymes in extracts of RBL-1 cells were assayed; host or cells: RBL-1 cells, disrupted by nitrogen cavitation; 10,000 x g or 100,000 x g supernatant
T2 sequence (P12527 1-673): T1 sequence (P12527 1-673)
In words: di-HETE production by RBL-1 high speed supernatant. Format: biochemical. Conditions: Table 9A; di-HETE production by RBL-1 high speed supernatant; read-out: 5-LO IC50. As to the method:
as §1, §2, §3

What is called IC50 is the concentration at which inhibition is half-maximal. On to `CCCNc1ccc(-c2nc3n(c2-c2ccncc2)CCS3)cc1` [Compound 2, 6-(4-(1-Propylamino)phenyl)-5-(4-pyridyl)-2,3-dihydroimidazo[2,1-b]thiazole], for which the IC50 in experiment [1] was determined as 12 µM; in experiment [2], 7 µM.

In the case of `c1cc(N2CCCC2)ccc1-c1nc2n(c1-c1ccc(N3CCCC3)cc1)CCS2` [Compound 3, 5,6-bis(4-(1-pyrrolidinyl)phenyl)-2,3-dihydroimidazo[2,1-b] thiazole], the IC50 in experiment [1] was 0.23 µM; in experiment [2], 0.1 µM.

Turning to `c1cc(N2CCCCC2)ccc1-c1nc2n(c1-c1ccc(N3CCCCC3)cc1)CCS2` [Compound 4, 5,6-bis(4-(1-piperidinyl)phenyl)-2,3-dihydroimidazo[2,1-b] thiazole], the IC50 in experiment [1] was determined as 1.2 µM; in experiment [2], 0.6 µM.

In the case of `c1cc(-c2c(-c3ccc4c(c3)OCO4)nc3n2CCS3)ccn1` [Compound 5, 5-(4-pyridyl)-6-(3,4-methylenedioxyphenyl)-2,3-dihydroimidazo[2,1-b]thiazole], the IC50 in experiment [1] and in experiment [2] was 10 µM throughout.

As for `CN(C)c1ccc(-c2nc3n(c2-c2ccc(F)cc2)CCS3)cc1` [Compound 6, 6-(4-N,N-dimethylaminophenyl)-5-(4-fluorophenyl)-2,3-dihydroimidazo[2,1-b]thiazole], the IC50 is 0.8 µM in experiment [1] and 0.6 µM in experiment [2].

As for `c1cc(-c2nc3n(c2-c2ccc4c(c2)OCO4)CCS3)ccn1` [Compound 7, 6-(4-pyridyl)-5-(3,4-methylenedioxyphenyl)-2,3-dihydroimidazo[2,1-b]thiazole], the IC50 in experiment [1] and in experiment [2] was 10 µM each time.

`Fc1ccc(-c2nc3n(c2-c2ccc(F)cc2)CCC3)cc1` [Compound 8, 2,3-Bis(4-fluorophenyl)-6,7-dihydro-5H-pyrrolo[1,2-a]imidazole]: the IC50 in experiment [1] came to 12 µM; in experiment [2] it was 8 µM.

Regarding `CCN(CC)c1ccc(-c2nc3n(c2-c2ccc(N(CC)CC)cc2)CCS3)cc1` [Compound 9, 5,6-bis(4-N,N-diethylaminophenyl)-2,3-dihydroimidazo [2,1-b]thiazole], the IC50 in experiment [1] was found to be 0.35 µM; in experiment [2], 0.16 µM.

In the case of `c1cc(-c2nc3n(c2-c2ccncc2)CCS3)ccn1` [Compound 11, 5,6-Bis(4-pyridyl)-2,3-dihydroimidazo(2,1-b)thiazole], the IC50 in experiment [1] came to 110 µM; in experiment [2], 33 µM.

As for `Fc1ccc(-c2c(-c3ccncc3)nc3n2CCS3)cc1` [Compound 12], the IC50 in experiment [1] is 16 µM; in experiment [2], 17 µM.

Turning to `N#Cc1ccc(-c2nc3n(c2-c2ccc(C#N)cc2)CCS3)cc1` [Compound 13, 5,6-bis(4-cyanophenyl)-2,3-dihydroimidazo[2,1-b]thiazole], the IC50 in experiment [1] turned out to be 16 µM; in experiment [2] it was 15 µM.

On to `COc1ccc(-c2nc3n(c2-c2ccc(F)cc2)CCS3)cc1` [Compound 14], for which the IC50 was determined as 2 µM in experiment [1] and 0.6 µM in experiment [2].

As for `FC(F)(F)c1ccc(-c2nc3n(c2-c2ccc(C(F)(F)F)cc2)CCS3)cc1` [Compound 15], the IC50 in experiment [1] and in experiment [2] was 10 µM in each case.

For `c1cc2c(cc1-c1nc3n(c1-c1ccc4c(c1)OCO4)CCS3)OCO2` [Compound 16], the IC50 in experiment [1] turned out to be 3.8 µM; in experiment [2], 1.5 µM.

On to `CCNc1ccc(-c2nc3n(c2-c2ccc(NCC)cc2)CCS3)cc1` [Compound 17], for which the IC50 in experiment [1] and in experiment [2] was 0.1 µM in each case.

For the compound `COc1ccc(-c2nc3n(c2-c2ccncc2)CCS3)cc1` [Compound 18], the IC50 in experiment [1] amounted to 5.4 µM; in experiment [2] it was 1.9 µM.

Consider `Fc1ccc(-c2nc3n(c2-c2ccc(F)cc2)CCS3)cc1` [Compound 19], for which the IC50 was found to be 8.6 µM in experiment [1] and 5 µM in experiment [2].

As for `COc1ccc(-c2nc3n(c2-c2ccc(OC)cc2)CCCS3)cc1` [Compound 20], the IC50 in experiment [1] and in experiment [2] was 5.6 µM throughout.

Consider `COc1ccc(-c2nc3n(c2-c2ccc(OC)cc2)CCS3)cc1` [Compound 21], for which the IC50 in experiment [1] was 3.9 µM; in experiment [2] it was 2.8 µM.

With `COc1ccc(-c2nc3n(c2-c2ccc(OC)cc2)CCC3)cc1` [Compound 22], 4 µM corresponded to half-maximal inhibition in experiment [1] (IC50).

In the case of `Fc1ccc(-c2nc3n(c2-c2ccccn2)CCS3)cc1` [Compound 23, 5-(2-pyridinyl)-6-(4-fluorophenyl)-2,3-dihydroimidazo[2,1-b]thiazole], the IC50 in experiment [1] stood at 90 µM; in experiment [2], 42 µM.

As to `Fc1ccc(-c2c(-c3ccccn3)nc3n2CCS3)cc1` [Compound 24, 5-(4-fluorophenyl)-6-(2-pyridinyl)-2,3-dihydroimidazo[2,1-b]thiazole], the IC50 was 37 µM in experiment [1] and 20 µM in experiment [2].

As for `c1cc(-c2c(-c3ccc(N4CCCC4)cc3)nc3n2CCS3)ccn1` [Compound 25, 5-(4-pyridyl)-6-(4-(pyrrolidin-1-yl)phenyl)-2,3-dihydroimidazo[2,1-b]thiazole], the IC50 in experiment [1] and in experiment [2] was 0.5 µM throughout.

In the case of `[O-][S+]1CCn2c1nc(-c1ccc(F)cc1)c2-c1ccncc1` (centres unmarked) [Compound 28, 6-(4-fluorophenyl)-5-(4-pyridyl)-2,3-dihydroimadazo-[2,1-b]thiazole-1-oxide], the IC50 in experiment [1] and in experiment [2] was 1000 µM in each case.

In the case of `O=S1(=O)CCn2c1nc(-c1ccc(F)cc1)c2-c1ccncc1` [Compound 29, 6-(4-fluorophenyl)-5-(4-pyridyl)-2,3-dihydroimidazo[2,1b]thiazole-1,1-dioxide], the IC50 in experiment [1] is 100 µM; in experiment [2], greater than 100 µM.

As for `[O-][S+]1CCn2c1nc(-c1ccc(F)cc1)c2-c1ccc(F)cc1` (centres unmarked) [Compound 30], the figures for the IC50 in experiment [1] and in experiment [2] were 70 µM and 60 µM, respectively.

Take `O=S1(=O)CCn2c1nc(-c1ccc(F)cc1)c2-c1ccc(F)cc1` [Compound 31]: the half-inhibitory concentration (IC50) in experiment [1] was 33 µM; in experiment [2], less than 33 µM.

Broadly, the inhibition is the share of the control response that was lost under treatment. As for `CSc1ccc(-c2nc3n(c2-c2ccc(SC)cc2)CCS3)cc1` [Compound 32], the IC50 in experiment [1] is greater than 10 µM; in experiment [2], greater than 100 µM. In addition, the inhibition at 10 µM in experiment [1] (read-out: % inhibition at 10 μM, 10 μM, 5-HETE production, footnotes of Table 8A) fell in the range of 35 to 40%.

On to `CC(=O)Nc1ccc(-c2nc3n(c2-c2ccncc2)CCS3)cc1` [Compound 38, 5-(4-pyridyl)-6-(4-acetamidophenyl)-2,3-dihydroimidazo [(2,1-b)]thiazole], for which the IC50 in experiment [1] was determined as 69 µM; in experiment [2] it was 30 µM.

On to `COc1ccc(-c2nc3n(c2-c2ccc(OC)cc2)CCS3(=O)=O)cc1` [Compound 43], for which the IC50 in experiment [1] and in experiment [2] was 10 µM in each case.

For the compound `Nc1ccc(-c2nc3n(c2-c2ccc(N)cc2)CCS3)cc1` [Compound 45, 5,6-bis(4-aminophenyl)-2,3-dihydroimidazo[2,1-b]thiazole], the IC50 came out at 8 µM in experiment [1] and 6 µM in experiment [2].
